Assay results taken from patent publication US10450378B2, “Cytotoxic and anti-mitotic compounds, and methods of using the same” (priority 2014, dated 2019).
Where two headings read alike, the source gives them in different places.

What was measured:
[1] = test system: Human T-cell leukemia cell line Jurkat; assay: Cellular cytotoxicity of compounds of Formula I, Example 3.1; type: cell-based; details: for EC50: Homo sapiens, Jurkat, read-out: EC50 (nM) Jurkat
Experimental: (§1) Compounds were tested on one or more of Human T-cell leukemia cell line Jurkat (ATCC: TIB-152); Human breast cancer cell lines HCC1954 (ATCC: CRL-2338) and JIMT-1 (DSMZ: ACC 589); Human Pancreatic cell line BxPC-3 (ATCC: CRL.1687), Human ovarian adenocarcinoma cell line SK-OV-3 (ATCC: HTB-77) and Human gastric carcinoma cell line NCI-N87 (ATCC: CRL. 5822); to assess their cytotoxicity.
(§2) Briefly, cells were obtained from commercial sources and cultured as described in the product sheet provided. Cells were removed from their culture vessels and the resulting cell suspension was counted using a ViCell (Beckman Coulter), then seeded at 25,000 cells/mL (2,500 cells/well) in Costar 3904 black walled, flat bottomed 96-well plates (cells were seeded in the inner 60 wells of 96-well TC plates, and outer edge wells filled with water). Adherent cell lines were incubated for one night at 37° C./5% CO2 atmosphere to allow the cells to attach to the microtiter plate surface, while suspension (Jurkat) cells were plated immediately before use. Cytotoxins were dissolved and serially diluted in dimethyl sulfoxide and then the solutions were added to complete growth medium at five-times the desired maximum final concentration. The cytotoxins were then titrated in growth medium, normally 1:3, over eight steps. A control with no test article present (growth medium alone) was included on each microtiter plate in sextuplicate. The prepared toxin titrations were added (25 μL/well) in triplicate to each cell line assayed. The cells and titrations were incubated at 37° C./5% CO2 for three nights (Jurkat) and five nights (all other cell lines). After the incubation, cell viability was measured using CellTiter-Glo® by adding 30 μL of prepared CellTiter-Glo® reagent to each assay well. The mixtures were incubated for at least twenty minutes in the dark prior to measuring emitted luminescence using a microplate luminometer (500 ms integration time). The collected relative luminescence units (RLU) were converted to % cytotoxicity using the growth medium alone control mentioned above (% Cytotoxicity=1-[well RLU/average medium alone control RLU]×100%).

Jurkat cell line = assay: Cytotoxicity of compounds of Formula I, Example 3 (CellTiter-Glo); type: cell-based, Human; details: for EC50: Homo sapiens, 72 h
Experimental: Compounds were tested on Jurkat and HCC1954 cell lines to assess their cytotoxicity. Compounds were titrated 1:3 starting at various concentrations (30 nM to 1000 nM). Control cytotoxin HTI-286 (see, e.g., U.S. Pat. No. 7,579,323) was also titrated 1:3 across starting with a 30 nM concentration. Plates were incubated for 3 days. Cell viability was quantified using 30 μL/well of 1× CellTiter-Glo reagent.
Each cell line was grown in its respective growth medium until seeding day. Cells were removed from their culture vessels and the resulting cell suspension was counted using the ViCell. Cells were then diluted in their growth medium to 25000/mL such that 100 μL/well=2500 cells/well. Each cell line was seeded in the inner 60 wells of 96-well black walled TC plates, outer wells filled with water. HCC1954 were seeded a day prior to assay set up. Cytotoxins were diluted as described below a 5× dose-response of each compound was prepared using RPMI+10% FBS in a deep-well 96-well plate. This “master” dilution plate was used for each cell line. 25 μL of the 5× dose responses was spiked into each cell line in triplicate. The plates were returned to the incubator and were incubated for 3 nights. After the 3 nights, cell viability was quantified using 30 μL/well of 1× CellTiter-glo reagent. After at least 10 minutes of incubation, the luminescence was measured using the SpectraMax (500 ms integration).

[2] = test system: Human gastric carcinoma cell line NCI-N87; assay: Cellular cytotoxicity of compounds of Formula I, Example 3.1; type: cell-based; details: five nights, CellTiter-Glo
Experimental: as §1, §2

[3] = test system: Human Pancreatic cell line BxPC-3; assay: as above; type: cell-based; details: five nights, CellTiter-Glo
Experimental: as §1, §2

[4] = 3 days incubation, CellTiter-Glo, read-out: EC50

Structure (SMILES) | EC50 ([1]; three nights, CellTiter-Glo) [nM] | EC50 (Jurkat cell line; [4]) [µM] | EC50 [1] [nM] | EC50 [2] [nM] | EC50 [3] [nM] | other results
CC[C@H](C)[C@@H]([C@@H](CC(=O)N1CCC[C@H]1[C@H](OC)[C@@H](C)C(=O)NS(=O)(=O)Cc1ccc(NC(=O)C(F)(F)F)cc1)OC)N(C)C(=O)[C@@H](NC(=O)[C@H](C(C)C)N(C)C)C(C)C [Compound 7, (S)-2-((S)-2-(Dimethylamino)-3-methylbutanamido)-N-((3R,4S,5S)-3-methoxy-1-((S)-2-((1R,2R)-1-methoxy-2-methyl-3-oxo-3-((4-(2,2,2-trifluoroacetamido)phenyl)methylsulfonamido)propyl)pyrrolidin-1-yl)-5-methyl-1-oxoheptan-4-yl)-N,3-dimethylbutanamide] | 29.9 | 0.0299 | – | – | – | –
CC[C@H](C)[C@@H]([C@@H](CC(=O)N1CCC[C@H]1[C@H](OC)[C@@H](C)C(=O)N[C@@H](Cc1ccccc1)C(=O)NS(=O)(=O)Cc1ccc(NC(=O)C(F)(F)F)cc1)OC)N(C)C(=O)[C@@H](NC(=O)[C@H](C(C)C)N(C)C)C(C)C [Compound 13, (S)-2-((S)-2-(Dimethylamino)-3-methylbutanamido)-N-((3R,4S,5S)-3-methoxy-1-((S)-2-((1R,2R)-1-methoxy-2-methyl-3-oxo-3-((S)-1-oxo-3-phenyl-1-(4-(2,2,2-trifluoroacetamido)phenylmethylsulfonamido)propan-2-ylamino)propyl)pyrrolidin-1-yl)-5-methyl-1-oxoheptan-4-yl)-N,3-dimethylbutanamide] | – | – | 20.9 | – | – | EC50 (Jurkat cell line): 0.0209 µM
CC[C@H](C)[C@@H]([C@@H](CC(=O)N1CCC[C@H]1[C@H](OC)[C@@H](C)C(=O)NS(=O)(=O)c1ccc(NC(=O)C(F)(F)F)cc1)OC)N(C)C(=O)[C@@H](NC(=O)[C@H](C(C)C)N(C)C)C(C)C [Compound 4, (S)-2-((S)-2-(Dimethylamino)-3-methylbutanamido)-N-((3R,4S,5S)-3-methoxy-1-((S)-2-((1R,2R)-1-methoxy-2-methyl-3-oxo-3-(4-(2,2,2-trifluoroacetamido)phenylsulfonamido)propyl)pyrrolidin-1-yl)-5-methyl-1-oxoheptan-4-yl)-N,3-dimethylbutanamide] | 18.1 | 0.0181 | – | – | – | –
CN[C@H](C(=O)N[C@H](C(=O)N(C)[C@H](/C=C(\C)C(=O)O)C(C)C)C(C)(C)C)C(C)(C)c1ccccc1 [HTI-286, reference compound] | – | – | – | – | – | Killing by control cytotoxin ([1]; stated for all cell lines of Example 3.1): successfully killed all cell lines at an expected concentration; Killing by control cytotoxin (Jurkat cell line; titrated 1:3 starting with 30 nM): successfully killed Jurkats at an expected concentration
CC[C@H](C)[C@@H]([C@@H](CC(=O)N1CCC[C@H]1[C@H](OC)[C@@H](C)C(=O)NS(=O)(=O)c1ccc(NC(=O)C(F)(F)F)cc1)OC)N(C)C(=O)[C@@H](NC(=O)[C@H]1CCCCN1C(C)C)C(C)C [Compound 15, (R)-1-Isopropyl-N-((S)-1-(((3R,4S,5S)-3-methoxy-1-((S)-2-((1R,2R)-1-methoxy-2-methyl-3-oxo-3-((4-(2,2,2-trifluoroacetamido)phenyl)sulfonamido)propyl)pyrrolidin-1-yl)-5-methyl-1-oxoheptan-4-yl)(methyl)amino)-3-methyl-1-oxobutan-2-yl)piperidine-2-carboxamide] | 10.1 | – | – | 11.7 | 14.5 | –
CC[C@H](C)[C@@H]([C@@H](CC(=O)N1CCC[C@H]1[C@H](OC)[C@@H](C)C(=O)N[C@@H](Cc1ccccc1)C(=O)NS(=O)(=O)c1ccc(N)cc1)OC)N(C)C(=O)[C@@H](NC(=O)[C@H](C(C)C)N(C)C)C(C)C [Compound 11, (S)-N-((3R,4S,5S)-1-((S)-2-((1R,2R)-3-((S)-1-(4-Aminophenylsulfonamido)-1-oxo-3-phenylpropan-2-ylamino)-1-methoxy-2-methyl-3-oxopropyl)pyrrolidin-1-yl)-3-methoxy-5-methyl-1-oxoheptan-4-yl)-2-((S)-2-(dimethylamino)-3-methylbutanamido)-N,3-dimethylbutanamide] | 52 | 0.052 | – | – | – | –
CC[C@H](C)[C@@H]([C@@H](CC(=O)N1CCC[C@H]1[C@H](OC)[C@@H](C)C(=O)NS(=O)(=O)c1ccc(N)cc1)OC)N(C)C(=O)[C@@H](NC(=O)[C@@H](NC)C(C)(C)c1ccccc1)C(C)C [Compound 19, (S)-N-((3R,4S,5S)-1-((S)-2-((1R,2R)-3-((4-Aminophenyl)sulfonamido)-1-methoxy-2-methyl-3-oxopropyl)pyrrolidin-1-yl)-3-methoxy-5-methyl-1-oxoheptan-4-yl)-N,3-dimethyl-2-((S)-3-methyl-2-(methylamino)-3-phenylbutanamido)butanamide] | 2.2 | – | – | 12.8 | 10.2 | –
CC[C@H](C)[C@@H]([C@@H](CC(=O)N1CCC[C@H]1[C@H](OC)[C@@H](C)C(=O)N[C@@H](Cc1ccccc1)C(=O)NS(=O)(=O)c1ccc(NC(=O)C(F)(F)F)cc1)OC)N(C)C(=O)[C@@H](NC(=O)[C@H](C(C)C)N(C)C)C(C)C [Compound 10, (S)-2-((S)-2-(Dimethylamino)-3-methylbutanamido)-N-((3R,4S,5S)-3-methoxy-1-((S)-2-((1R,2R)-1-methoxy-2-methyl-3-oxo-3-((S)-1-oxo-3-phenyl-1-(4-(2,2,2-trifluoroacetamido)phenylsulfonamido)propan-2-ylamino)propyl)pyrrolidin-1-yl)-5-methyl-1-oxoheptan-4-yl)-N,3-dimethylbutanamide] | – | – | 45.3 | – | – | EC50 (Jurkat cell line): 0.0453 µM
CC[C@H](C)[C@@H]([C@@H](CC(=O)N1CCC[C@H]1[C@H](OC)[C@@H](C)C(=O)NS(=O)(=O)c1ccc(CNC(=O)C(F)(F)F)cc1)OC)N(C)C(=O)[C@@H](NC(=O)[C@H](C(C)C)N(C)C)C(C)C [Compound 21, (S)-2-((S)-2-(Dimethylamino)-3-methylbutanamido)-N-((3R,4S,5S)-3-methoxy-1-((S)-2-((1R,2R)-1-methoxy-2-methyl-3-oxo-3-((4-((2,2,2-trifluoroacetamido)methyl)phenyl)sulfonamido)propyl)pyrrolidin-1-yl)-5-methyl-1-oxoheptan-4-yl)-N,3-dimethylbutanamide] | ~100 | – | – | > 300 | > 100 | –
CC[C@H](C)[C@@H]([C@@H](CC(=O)N1CCC[C@H]1[C@H](OC)[C@@H](C)C(=O)N[C@@H](Cc1ccccc1)C(=O)NS(=O)(=O)c1ccc(CNC(=O)C(F)(F)F)cc1)OC)N(C)C(=O)[C@@H](NC(=O)[C@H](C(C)C)N(C)C)C(C)C [Compound 23, (S)-2-((S)-2-(Dimethylamino)-3-methylbutanamido)-N-((3R,4S,5S)-3-methoxy-1-((S)-2-((1R,2R)-1-methoxy-2-methyl-3-oxo-3-(((S)-1-oxo-3-phenyl-1-((4-((2,2,2-trifluoroacetamido)methyl)phenyl)sulfonamido)propan-2-yl)amino)propyl)pyrrolidin-1-yl)-5-methyl-1-oxoheptan-4-yl)-N,3-dimethylbutanamide] | – | – | 11.8 | 11.3 | 17.2 | –
